Laboratory results taken from article PMC10584170, “Machine learning-based phenotypic imaging to characterise the targetable biology of Plasmodium falciparum male gametocytes for the development of transmission-blocking antimalarials” (PLOS Pathogens, 2023).
Like-named read-outs stand apart in the source and are kept apart here.

Key:
[1] = tested on: P. falciparum male gametocytes; experiment: P. falciparum Dual Gamete Formation Assay (PfDGFA), male readout (exflagellation); format: cell-based, Plasmodium falciparum NF54; conditions: for Activity: hit = >50% inhibition in male or female readout in at least 3 replicates, 0 = no class assigned
How it was run: (§1)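 NF54 mature gametocytes (d14), cpd 24 h 37°C hypoxic gas; trigger: xanthurenic acid ookinete medium + Cy3 anti-Pfs25, 4°C 4 min → 28°C 4 min. Male: exflagellation centres, brightfield x6. Female: Pfs25+ gametes, fluorescence, +24 h 28°C dark.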

[2] = tested on: P. falciparum female gametocytes; experiment: P. falciparum Dual Gamete Formation Assay (PfDGFA), female readout (Pfs25-positive female gametes); format: cell-based, Plasmodium falciparum NF54
How it was run: as §1

[3] = 2µM, 24h preincubation with gametocytes prior to induction of gametogenesis, average of replicates
[4] = 2µM, 24h preincubation with gametocytes prior to induction of gametogenesis, replicate R1
[5] = 2µM, 24h preincubation with gametocytes prior to induction of gametogenesis, replicate R3
[6] = 2µM, 24h preincubation with gametocytes prior to induction of gametogenesis, replicate R4
[7] = 2µM, 24h preincubation, hits selected on >50% inhibition in the male readout across replicates
[8] = PfDGFA at 2µM, 24h preincubation
[9] = 2µM, 24h preincubation, hits selected on >50% inhibition in the female readout across replicates
[10] = 2µM, 24h preincubation, number of replicates with >50% inhibition in the male readout
[11] = 2µM, 24h preincubation, number of replicates with >50% inhibition in the female readout
[12] = PfDGFA at 2µM, 24h preincubation with gametocytes, average of replicates
[13] = PfDGFA at 2µM, 24h preincubation with gametocytes, replicate R1
[14] = PfDGFA at 2µM, 24h preincubation with gametocytes, replicate R3
[15] = PfDGFA at 2µM, 24h preincubation with gametocytes, replicate R4
[16] = number of replicates with >50% inhibition in the male readout, 2µM
[17] = number of replicates with >50% inhibition in the female readout, 2µM
[18] = PfDGFA at 2µM, 24h preincubation with gametocytes prior to induction of gametogenesis, replicate R1
[19] = PfDGFA at 2µM, 24h preincubation with gametocytes prior to induction of gametogenesis, replicate R3
[20] = PfDGFA at 2µM, 24h preincubation with gametocytes prior to induction of gametogenesis, replicate R4
[21] = PfDGFA at 2µM, 24h preincubation, average of replicates

Compound	Average inhibition male (%) [1, 3]	% inhibition male (individual replicates) R1 [1, 4]	% inhibition male (individual replicates) R3 [1, 5]	% inhibition male (individual replicates) R4 [1, 6]	HitlevelM [1, 7]	Activity [1, 8]	Average inhibition female (%) [2, 3]	% inhibition female (individual replicates) R1 [2, 4]	% inhibition female (individual replicates) R3 [2, 5]	% inhibition female (individual replicates) R4 [2, 6]	HitlevelF [2, 9]	HitlevelM [1, 10]	HitlevelF [2, 11]	other results
NC1CCN(Cc2ccc(-c3ccc(-c4nc5cc(F)ccc5[nH]4)cc3)cc2)C1.O=C(O)C(F)(F)F (stereo not shown) [TCMDC-133872]	30.9%	32.1%	18.9%	53.6%	1	0	9.7%	21.7%	5.5%	3.9%	0	–	–	–
O=C(O)C(F)(F)F.c1cc(-c2ccc(CN3CCCCC3)cc2)cc(-c2nc3ccccc3[nH]2)c1 [TCMDC-133917]	9.6%	7.6%	11.1%	9.5%	0	0	7.0%	8.8%	-3.2%	28.3%	0	–	–	–
Cc1cccc2nc(-c3ccc(-c4cccc(CN5CCC(CCN6CCCCC6)CC5)c4)s3)[nH]c12.O=C(O)C(F)(F)F [TCMDC-133923]	52.7%	48.5%	59.9%	89.6%	–	–	32.1%	30.9%	27.4%	27.6%	–	2	0	–
Cc1cccc2nc(-c3ccc(-c4ccc(CN5CCC(CCN6CCCCC6)CC5)cc4)cc3)[nH]c12.O=C(O)C(F)(F)F [TCMDC-133929]	–	–	–	–	–	–	–	–	–	–	–	–	–	Average inhibition male (%) [1, 12]: 89.3%; % inhibition male (individual replicates) R1 [1, 13]: 91.7%; % inhibition male (individual replicates) R3 [1, 14]: 68.3%; % inhibition male (individual replicates) R4 [1, 15]: 101.6%; HitlevelM [1, 16]: 4; Average inhibition female (%) [2, 12]: 48.2%; % inhibition female (individual replicates) R1 [2, 13]: 36.0%; % inhibition female (individual replicates) R3 [2, 14]: 37.3%; % inhibition female (individual replicates) R4 [2, 15]: 59.9%; HitlevelF [2, 17]: 2
FC(F)(F)c1ccc2[nH]c(-c3ccc(-c4cccc(CN5CCC(CCN6CCCCC6)CC5)c4)cc3)nc2c1.O=C(O)C(F)(F)F [TCMDC-133941]	–	–	–	–	–	–	–	–	–	–	–	–	–	Average inhibition male (%) [1, 12]: 80.4%; % inhibition male (individual replicates) R1 [1, 13]: 88.3%; % inhibition male (individual replicates) R3 [1, 14]: 55.8%; % inhibition male (individual replicates) R4 [1, 15]: 84.9%; HitlevelM [1, 16]: 4; Average inhibition female (%) [2, 12]: 50.7%; % inhibition female (individual replicates) R1 [2, 13]: 37.2%; % inhibition female (individual replicates) R3 [2, 14]: 33.9%; % inhibition female (individual replicates) R4 [2, 15]: 67.8%; HitlevelF [2, 17]: 2
O=C(O)C(F)(F)F.Oc1ccc(CCNc2nc(NCCCOc3cc(CN4CCCCC4)ccc3F)nc(N3CCNCC3)n2)cc1 [TCMDC-134044]	22.7%	35.5%	-22.2%	28.2%	0	0	16.2%	9.4%	-11.0%	47.6%	0	–	–	–
Cc1c(Cl)cccc1S(=O)(=O)Nc1ccc(CCN2CCC(N)CC2)cc1.Cl [TCMDC-134083]	39.0%	41.2%	34.9%	36.9%	–	–	33.7%	28.3%	44.7%	16.4%	–	0	0	–
Cl.NC1CCN(CCc2ccc(NS(=O)(=O)c3cccc4ccccc34)cc2)CC1 [TCMDC-134084]	20.4%	10.3%	–	7.9%	–	–	19.4%	15.4%	22.2%	21.1%	–	0	0	–
Cl.NC1CCN(CCc2ccc(NS(=O)(=O)c3ccc(-c4ccccc4)cc3)cc2)CC1 [TCMDC-134085]	44.1%	43.6%	36.7%	44.2%	–	–	47.2%	28.9%	50.6%	70.5%	–	1	2	–
COc1ccc(-c2cnc(NCc3ccccc3)nc2)cc1CNC1CCN(C)CC1.O=C(O)C(F)(F)F [TCMDC-134121]	49.5%	40.8%	–	53.6%	–	–	23.3%	22.9%	24.0%	18.0%	–	2	0	–
CS(=O)(=O)Cc1ccc(Nc2ncc(Cl)c(Nc3cccnc3C(N)=O)n2)cc1.Cl [TCMDC-134165]	–	–	–	–	–	–	–	–	–	–	–	–	–	Selectivity Ratio M ([1]; HepG2 Tox50 versus male IC50): 16.00; inhibition at 2 µM ([1]; Plasmodium falciparum, 2µM, 24h preincubation with gametocytes, average of replicates, read-out: Average inhibition male (%)): 92.8%; inhibition at 2 µM ([1]; Plasmodium falciparum, 2µM, 24h preincubation with gametocytes, replicate R1, read-out: % inhibition male (individual replicates) R1): 89.8%; inhibition at 2 µM ([1]; Plasmodium falciparum, 2µM, 24h preincubation with gametocytes, replicate R2, read-out: % inhibition male (individual replicates) R2): 95.7%; inhibition at 2 µM ([1]; Plasmodium falciparum, 2µM, 24h preincubation with gametocytes, replicate R3, read-out: % inhibition male (individual replicates) R3): 93.3%; inhibition at 2 µM ([1]; Plasmodium falciparum, 2µM, 24h preincubation with gametocytes, replicate R4, read-out: % inhibition male (individual replicates) R4): 92.2%; IC50 ([1]; Plasmodium falciparum, PfDGFA, 24 h incubation with gametocytes before induction, exflagellation readout, read-out: Male IC50): 6.25 µM; Selectivity ratio F ([2]; HepG2 Tox50 versus female IC50): 10.00; inhibition at 2 µM ([2]; Plasmodium falciparum, 2µM, 24h preincubation with gametocytes, average of replicates, read-out: Average inhibition female (%)): -4.3%; inhibition at 2 µM ([2]; Plasmodium falciparum, 2µM, 24h preincubation with gametocytes, replicate R1, read-out: % inhibition female (individual replicates) R1): -8.1%; inhibition at 2 µM ([2]; Plasmodium falciparum, 2µM, 24h preincubation with gametocytes, replicate R2, read-out: % inhibition female (individual replicates) R2): -1.5%; inhibition at 2 µM ([2]; Plasmodium falciparum, 2µM, 24h preincubation with gametocytes, replicate R3, read-out: % inhibition female (individual replicates) R3): -18.7%; inhibition at 2 µM ([2]; Plasmodium falciparum, 2µM, 24h preincubation with gametocytes, replicate R4, read-out: % inhibition female (individual replicates) R4): 10.9%; IC50 ([2]; Plasmodium falciparum, PfDGFA, 24 h incubation with gametocytes before induction, female gamete readout, read-out: Female IC50): > 10 µM
CS(=O)(=O)Cc1cccc(Nc2ncc(Cl)c(Nc3cccnc3C(N)=O)n2)c1.Cl [TCMDC-134166]	–	–	–	–	–	–	–	–	–	–	–	–	–	% inhibition male (individual replicates) R1 [1, 18]: 26.3%; % inhibition male (individual replicates) R3 [1, 19]: 45.1%; % inhibition male (individual replicates) R4 [1, 20]: 42.9%; Average inhibition male (%) [1, 21]: 37.5%; % inhibition female (individual replicates) R1 [2, 18]: 12.6%; % inhibition female (individual replicates) R3 [2, 19]: -16.8%; % inhibition female (individual replicates) R4 [2, 20]: 3.4%; Average inhibition female (%) [2, 21]: 1.1%
CC[C@H](C)CNC(=O)c1ccnc(-c2ccc(CN3CCC(N4CCCC4)CC3)cc2)c1.O=C(O)C(F)(F)F [TCMDC-134250]	-12.4%	-12.1%	-7.9%	-29.8%	0	0	14.3%	14.5%	6.5%	6.6%	0	–	–	–
CC1CCCC(C)N1C[C@@H](O)CNS(=O)(=O)c1cccc(C(F)(F)F)c1.Cl (stereo partly shown) [TCMDC-134258]	5.6%	-0.6%	1.0%	12.9%	0	0	4.2%	10.4%	-24.4%	21.9%	0	–	–	–
